Laboratory results published in ChEMBL document CHEMBL1255508, “Neopetrosiamine A, biologically active bis-piperidine alkaloid from the Caribbean sea sponge Neopetrosia proxima” (Bioorg Med Chem Lett, 2010).
≈ marks a conversion by molar mass, not a printed value.

Legend:
[1] = tested on: Malme-3M; experiment: […] activity against human MALME-3M cells; assay type: functional, cell-based
[2] = tested on: CCRF-CEM; experiment: […] activity against human CCRF-CEM cells; assay type: functional, cell-based
[3] = tested on: MCF7; experiment: […] activity against human MCF7 cells; assay type: functional, cell-based
[4] = tested on: Mycobacterium tuberculosis; experiment: Antimycobacterial activity against Mycobacterium tuberculosis H37Rv by microplate alamar blue assay; assay type: functional
[5] = tested on: Vero; experiment: Cytotoxicity against african green monkey Vero cells; assay type: cell-based; conditions: Chlorocebus sabaeus
[6] = tested on: Plasmodium falciparum; experiment: Antiplasmodial activity against Plasmodium falciparum; assay type: functional, organism-based

C1=C\CCCCN2CC[C@@H]3[C@@H](CCCC/C=C\CCCCN4C[C@H](CCCC/1)C[C@H]3C4)C2 [NEOPETROSIAMINE A] showed an IC50 [1] of 1.5 µM, an IC50 [2] of 2 µM and an IC50 [3] of 3.5 µM. The MIC [4] was 7.5 µg/mL (≈ 17 µM), the IC50 [5] was 42.4 µg/mL (≈ 96.2 µM) and the IC50 [6] was 2.3 µM.
